Data: patent US20260078341A1, “TREATMENT OF CANCER USING CHIMERIC ANTIGEN RECEPTOR” (Novartis AG, priority 2014, published 2026)
Read-outs that look alike come from different tables or passages of the source. Marks after values point to notes of the source that are not given here.

Experiments:
[1] = Questionnaires on energy and exercise one year after dosing; type: in vivo, human; details: 0.5 mg daily dosing cohort
H3N2 A/Victoria/210/2009 = assay: Hemagglutination inhibition titers after influenza vaccination, A/H3N2 vaccine strain; type: in vivo, human; details: for HI GMT ratio (CV %) A/H3N2: GMT at week 4 post vaccination/GMT at baseline
Protocol: (§1) The trial was observer-blind because the placebo in the RAD001 0.5 mg daily and 20 mg weekly cohorts differed slightly from the RAD001 tablets in those cohorts. […] The treatment duration for all cohorts was 6 weeks during which time subjects underwent safety evaluations in the clinic every 2 weeks. After subjects had been dosed for 4 weeks, RAD001 steady state levels were measured pre-dose and at one hour post dose. After completing the 6 week course of study drug, subjects were given a 2 week drug free break to reverse any possible RAD001-induced immunosuppression, and then were given a 2012 seasonal influenza vaccination (Agrippal®, Novartis Vaccines and Diagnostics, Siena, Italy) containing the strains H1N1 A/California/07/2009, H3N2 A/Victoria/210/2009, B/Brisbane/60/2008. Four weeks after influenza vaccination, subjects had serum collected for influenza titer measurements. Antibody titers to the 3 influenza vaccine strains as well as to 2 heterologous strains (A/H1N1 strain A/New Jersy/8/76 and A/H3N2 strain A/Victoria/361/11) were measured by standard hemagglutination inhibition assay (Kendal, A P et al. (1982) Concepts and procedures for laboratory-based influenza surveillance. Atlanta: Centers for Disease Control and Prevention B17-B35). Levels of IgG and IgM specific for the A/H1N1/California/07/2009 were measured in serum samples taken before and 4 weeks after influenza vaccination as described previously (Spensieri, F. et al. (2013) Proc. Natl. Acad. Sci. USA 110:14330-14335). Results were expressed as fluorescence intensity.
(§2) The primary analysis of geometric mean titer ratios was done using a normal Bayesian regression model with non-informative priors. This model was fitted to each antibody titer on the log scale. The primary outcome in each model was the Day 84 measurement. The Day 63 measurement was included in the outcome vector. The model fitted using SAS 9.2 proc mixed with the prior statement. The covariance structure of the matrix was considered as unstructured (option type=UN). A flat prior was used. For the secondary analysis of seroconversion rates, logistic regression was used.
(§3) The ability of RAD001 to improve immune function in elderly volunteers was evaluated by measuring the serologic response to the 2012 seasonal influenza vaccine. The hemagglutination inhibition (HI) geometric mean titers (GMT) to each of the 3 influenza vaccine strains at baseline and 4 weeks after influenza vaccination are provided in Table 6. The primary analysis variable was the HI GMT ratio (4 weeks post vaccination/baseline). […] This endpoint was chosen because a 1.2-fold increase in the influenza GMT ratio induced by the MF-59 vaccine adjuvant was associated with a decrease in influenza illness (Iob, A et al. (2005) Epidemiol Infect 133:687-693).
(§4) Rates of seroconversion 4 weeks after influenza vaccination were also evaluated. Seroconversion was defined as the change from a negative pre-vaccination titer (i.e., HI titer <1:10) to post-vaccination HI titer ≥1:40 or at least 4-fold increase from a non-negative (>1:10) pre-vaccination HI titer.

[2] = system: A/H1N1 strain A/New Jersey/8/76; type: in vivo, human; details: 4 weeks after seasonal influenza vaccination
[3] = Exercise and energy in elderly subjects; type: in vivo, human
[4] = system: A/H1N1/California/07/2009; assay: Anti-influenza IgG and IgM levels in serum; type: in vivo, human; details: 4 weeks after influenza vaccination
Protocol: as §1, with “After completing the 6 week course of study drug, subjects were given a 2 week drug free break to reverse any possible RAD001-induced immunosuppression, and then were given a 2012 seasonal influenza vaccination (Agrippal®, Novartis Vaccines and Diagnostics, Siena, Italy) containing the strains H1N1 A/California/07/2009, H3N2 A/Victoria/210/2009, B/Brisbane/60/2008. Four weeks after influenza vaccination, subjects had serum collected for influenza titer measurements.” left out

B/Brisbane/60/2008 = assay: Hemagglutination inhibition titers after influenza vaccination, B vaccine strain; type: in vivo, human; details: for HI GMT ratio (CV %) B: GMT at week 4 post vaccination/GMT at baseline
Protocol: as §1, §2, §3, §4

[5] = Baseline (2 weeks prior to influenza vaccination), RAD001 0.5 mg daily
[6] = Baseline (2 weeks prior to influenza vaccination), RAD001 5 mg weekly
[7] = Baseline (2 weeks prior to influenza vaccination), RAD001 20 mg weekly
[8] = Intention to Treat Population, 0.5 mg
[9] = Intention to Treat Population, 5 mg
[10] = Intention to Treat Population, 20 mg
[11] = Subjects with Baseline Titers <=40, 0.5 mg
[12] = Subjects with Baseline Titers <=40, 5 mg
[13] = Subjects with Baseline Titers <=40, 20 mg
[14] = Week 4 after influenza vaccination, RAD001 0.5 mg daily
[15] = Week 4 after influenza vaccination, RAD001 5 mg weekly
[16] = Week 4 after influenza vaccination, RAD001 20 mg weekly

With `CO[C@H]1C[C@@H]2CC[C@@H](C)[C@@](O)(O2)C(=O)C(=O)N2CCCC[C@H]2C(=O)O[C@H]([C@H](C)C[C@@H]2CC[C@@H](OCCO)[C@H](OC)C2)CC(=O)[C@H](C)/C=C(\C)[C@@H](O)[C@@H](OC)C(=O)[C@H](C)C[C@H](C)/C=C/C=C/C=C/1C` [RAD001, (1R,9S,12S,15R,16E,18R,19R,21R,23S,24E,26E,28E,30S,32S,35R)-1,18-dihydroxy-12-{(1R)-2-[(1S,3R,4R)-4-(2-hydroxyethoxy)-3-methoxycyclohexyl]-1-methylethyl}-19,30-dimethoxy-15,17,21,23,29,35-hexamethyl-11,36-dioxa-4-azatricyclo[30.3.1.0^4,9]hexatriaconta-16,24,26,28-tetraene-2,3,10,14,20-pentaone] the “energy and exercise ability as compared to placebo” value [1] was “increased energy and exercise ability”, the “HI GMT (CV %) A/H3N2” value (H3N2 A/Victoria/210/2009; [5]) was 106.8 (168.2) and the “HI GMT (CV %) A/H3N2” value (H3N2 A/Victoria/210/2009; [6]) was 126.04 (162.6). The “HI GMT (CV %) A/H3N2” value (H3N2 A/Victoria/210/2009; [7]) was 137.1 (211.5), the “HI GMT ratio (CV %) A/H3N2” value (H3N2 A/Victoria/210/2009; RAD001 0.5 mg daily) was 2.1 (152.6) and the “HI GMT ratio (CV %) A/H3N2” value (H3N2 A/Victoria/210/2009; RAD001 5 mg weekly) was 2.0 (189.2). For the same compound, the “HI GMT ratio (CV %) A/H3N2” value (H3N2 A/Victoria/210/2009; RAD001 20 mg weekly) was 2.1 (277.3), the “Percent of subjects with seroconversion to influenza 4 weeks after vaccination, H3N2” value (from here on “Percent of subjects with seroconversion … H3N2”) (H3N2 A/Victoria/210/2009; [8]) was 27% and the “Percent of subjects with seroconversion … H3N2” value (H3N2 A/Victoria/210/2009; [9]) was 24%. The “Percent of subjects with seroconversion … H3N2” value (H3N2 A/Victoria/210/2009; [10]) was 25%, the “Percent of subjects with seroconversion … H3N2” value (H3N2 A/Victoria/210/2009; [11]) was 64% and the “Percent of subjects with seroconversion … H3N2” value (H3N2 A/Victoria/210/2009; [12]) was 53%. The “Percent of subjects with seroconversion … H3N2” value (H3N2 A/Victoria/210/2009; [13]) was 71%, the “HI GMT (CV %) A/H3N2” value (H3N2 A/Victoria/210/2009; [14]) was 194.4 (129.1) and the “HI GMT (CV %) A/H3N2” value (H3N2 A/Victoria/210/2009; [15]) was 223.0 (118.8). The “HI GMT (CV %) A/H3N2” value (H3N2 A/Victoria/210/2009; [16]) was 223.0 (163.6), the “Percentage of subjects who seroconvert to heterologous strain A/H1N1 A/NewJersey/8/76” value ([2]; RAD001 5 mg weekly) was 16% and the “Percentage of subjects who seroconvert to heterologous strain A/H1N1 A/NewJersey/8/76” value ([2]; RAD001 20 mg weekly) was 8%. For the same compound, the “average RAD001 trough level” value (0.5 mg daily dosing cohort) was 0.9 ng/mL, the “average RAD001 trough level” value (20 mg weekly dosing cohort) was 0.7 ng/mL and the “trough level of the study regimens relative to oncology and transplant regimens, fold lower” value (dosing regimens used in the immunization study) was 3-20 fold. For the same compound, the exercise and energy [3] was “increases in exercise and energy”, the “post-vaccination anti-influenza IgM and IgG levels, RAD001 versus placebo” value [4] was “did not differ” and the “HI GMT (CV %) B” value (B/Brisbane/60/2008; [5]) was 44.2 (96.6). The “HI GMT (CV %) B” value (B/Brisbane/60/2008; [6]) was 64.8 (87.3), the “HI GMT (CV %) B” value (B/Brisbane/60/2008; [7]) was 58.0 (156.0) and the “HI GMT ratio (CV %) B” value (B/Brisbane/60/2008; RAD001 0.5 mg daily) was 2.5 (111.2). For the same compound, the “HI GMT ratio (CV %) B” value (B/Brisbane/60/2008; RAD001 5 mg weekly) was 2.2 (112.8), the “HI GMT ratio (CV %) B” value (B/Brisbane/60/2008; RAD001 20 mg weekly) was 2.1 (126.5) and the “Percent of subjects with seroconversion to influenza 4 weeks after vaccination, B” value (from here on “Percent of subjects … after vaccination, B”) (B/Brisbane/60/2008; [8]) was 27%. The “Percent of subjects … after vaccination, B” value (B/Brisbane/60/2008; [9]) was 22%, the “Percent of subjects … after vaccination, B” value (B/Brisbane/60/2008; [10]) was 19% and the “Percent of subjects … after vaccination, B” value (B/Brisbane/60/2008; [11]) was 40* Percent. The “Percent of subjects … after vaccination, B” value (B/Brisbane/60/2008; [12]) was 33%, the “Percent of subjects … after vaccination, B” value (B/Brisbane/60/2008; [13]) was 28% and the “HI GMT (CV %) B” value (B/Brisbane/60/2008; [14]) was 98.4 (94.8). For the same compound, the “HI GMT (CV %) B” value (B/Brisbane/60/2008; [15]) was 117.3 (99.9) and the “HI GMT (CV %) B” value (B/Brisbane/60/2008; [16]) was 99.2 (124.1).
